Measurements published in patent US10166214B2, “Somatostatin receptor subtype 4 (SSTR4) agonists” (Centrexion Therapeutics Corporation, priority 2013, dated 2019).

Experiments:
[1] = molecular target: human Somatostatin 4 receptor (SSTR4) (Homo sapiens (Human), UniProt P31391); test: cAMP assay with human somatostatin 4 receptor (hSSTR4 expressing H4 cells); type: cell-based; settings: read-out: SSTR4 agonism EC50
Experimental: Method Description for cAMP Assay with Human Somatostatin 4 Receptor
The activation of the SSTR4 receptor (Gi coupled) causes an inhibition of intracellular cAMP after stimulation with Forskolin, which can be quantifiable by use of a suitable assay Kit and an adequate plate reader. This technique is used to characterize pharmacological effects of the SSTR4 receptor agonists by use of hSSTR4 expressing H4 cells.
Compounds are dissolved and diluted in DMSO. The final test solution contains 1% DMSO. […] Cells are centrifuged and suspended in assay buffer (incl. 1:100 diluted Alexa antibody).
For the assay 5 μl of a cell suspension (approximately 5000 cells/well)—incl. Alexa antibody (diluted 1:100) are added into a 384 well MTP microtitre plate excepting one row or column (depending on the plate layout), which is reserved for the standard curve. Then 2 μl of compound sample is added as concentration response curve (e.g. 1e-5 M to 6e-10 M), usually in triplicates. Each assay contains incubations with vehicle controls instead of compound as controls for non-inhibited cAMP generation (100% CTL; ‘high values’) and incubations with 1 μM Somatosatin as controls for full inhibition and background (0% CTL; ‘low values’). […] Then the plates are shaken briefly and incubated for 60 min at room temperature. After 60 min 10 μl of the detection mix is added into all wells followed by an additional incubation period of 1 h. The plates are read in a suitable plate reader.
From this ratio, cAMP concentrations are calculated from standard curve and the EC50 is estimated by least square curve fit program.

[2] = Metabolic stability in pooled human liver microsomes (half-life); type: in vitro ADME; settings: 1 μM test compound; for Half-life t1/2: 37° C.; for half-life at 1 μM: pH 7.6, 37° C., read-out: Half-life t1/2
Experimental: The metabolic stability of the compounds according to the invention may be investigated as follows:
The metabolic degradation of the test compound is assayed at 37° C. with pooled human liver microsomes. The final incubation volume of 100 μl per time point contains TRIS buffer pH 7.6 at room temperature (0.1 M), magnesium chloride (5 mM), microsomal protein (1 mg/mL) and the test compound at a final concentration of 1 μM. Following a short preincubation period at 37° C., the reactions are initiated by addition of beta-nicotinamide adenine dinucleotide phosphate, reduced form (NADPH, 1 mM), and terminated by transferring an aliquot into solvent after different time points. After centrifugation (10000 g, 5 min), an aliquot of the supernatant is assayed by LC-MS/MS for the amount of parent compound. The half-life is determined by the slope of the semi-logarithmic plot of the concentration-time profile.

human SSTR4 = human SSTR4 (Homo sapiens (Human), UniProt P31391); test: Radioligand binding assay, CHO cell membranes expressing recombinant human SSTR4; settings: [3-125I-Tyr]-Somatostatin-(1-14)
Sequence of human SSTR4 (P31391 whole entry): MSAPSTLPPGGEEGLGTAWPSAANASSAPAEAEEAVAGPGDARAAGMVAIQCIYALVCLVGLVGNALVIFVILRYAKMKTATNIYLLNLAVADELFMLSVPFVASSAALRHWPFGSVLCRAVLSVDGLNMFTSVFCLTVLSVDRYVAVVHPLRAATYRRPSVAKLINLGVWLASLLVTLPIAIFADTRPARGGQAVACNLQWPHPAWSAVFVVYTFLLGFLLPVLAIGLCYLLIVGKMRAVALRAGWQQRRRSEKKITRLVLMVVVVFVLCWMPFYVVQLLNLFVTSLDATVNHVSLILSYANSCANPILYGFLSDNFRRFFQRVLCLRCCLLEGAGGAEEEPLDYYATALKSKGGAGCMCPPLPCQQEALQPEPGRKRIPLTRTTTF
Experimental: Receptor binding assays refer to a technique in which labeled receptor ligands are used to detect binding to a receptor. In competition experiments test compounds, which are not labeled, compete with the binding side of a labeled ligand. The displacement of the labeled ligand by the test compound leads to a decreased signal.
For the binding experiments 200 μL of membrane homogenate from one of the following protein amounts is used: hSSTR1 (40 μg/well); hSSTR2 (25 μg/well); hSSTR3 (1.5 μg/well); hSSTR4 (0.5 μg/well); hSSTR5 (25 μg/well). […] The protein-bound radioactivity is measured in a suitable reader. The non-specific binding is defined as radioactivity bound in the presence of 1 μM Somatostatin-14 during the incubation period.
The analysis of the concentration-binding curves is performed by computer-assisted nonlinear least square curve fitting method using the model of one receptor binding site.

Sequence of human Somatostatin 4 receptor (SSTR4) (P31391 whole entry): as above

Compound	Half-life t1/2 [2]	other results
O=C(NC1CCCCC1c1ccccc1)[C@H]1[C@@H]2CNC[C@@H]21 (stereo partly drawn) [Example 9]		EC50 [1]: 536 nM
CC(C)(COc1cccnc1C(F)(F)F)NC(=O)[C@H]1[C@@H]2CNC[C@@H]21.Cl [Example 18]	>2.17 h	
CC(C)(NC(=O)[C@H]1[C@@H]2CNC[C@@H]21)c1cnc2ccccn12.Cl [Example 20]	>2.17 h	
CC(C)(NC(=O)[C@H]1[C@@H]2CNC[C@@H]21)c1ccnc2ccccc12.Cl [Example 21]	>2.17 h	
Cc1cc2ccccc2c(C(C)(C)NC(=O)[C@H]2[C@@H]3CNC[C@@H]32)n1.Cl [Example 22]	>2.17 h	
CC(C)(NC(=O)[C@H]1[C@@H]2CNC[C@@H]21)c1ncccc1C(F)(F)F.Cl [Example 23]	>2.17 h	
CC(C)(NC(=O)[C@H]1[C@@H]2CNC[C@@H]21)c1nccc2ccccc12.Cl [Example 24]	>2.17 h	
Cc1cccnc1C(C)(C)NC(=O)[C@H]1[C@@H]2CNC[C@@H]21.Cl.Cl [Example 25]	>2.17 h	
CCc1ccccc1OCC(C)(C)NC(=O)[C@H]1[C@@H]2CNC[C@@H]21 [Example 39]	>2.17 h	
Cc1ncccc1OCC(C)(C)NC(=O)[C@H]1[C@@H]2CNC[C@@H]21.Cl [Example 44]	>2.17 h	
Cc1cc(C2CC2)ccc1OCC(C)(C)NC(=O)[C@H]1[C@@H]2CNC[C@@H]21 [Example 65]		half-life at 1 μM [2]: > 2.17 h
Cc1ccnnc1OCC(C)(C)NC(=O)[C@H]1[C@@H]2CNC[C@@H]21.Cl [Example 67]	>2.17 h	
CC(C)(NC(=O)[C@H]1[C@@H]2CNC[C@@H]21)c1ncc2ccccn12.Cl [Example 68]	>2.17 h	
Cc1cccc2c(C(C)(C)NC(=O)[C@H]3[C@@H]4CNC[C@@H]43)n[nH]c12 [Example 93]		EC50 [1]: 0.1 nM; Ki (human SSTR4): 3.6 nM; half-life at 1 μM [2]: > 2.17 h
CC(C)(NC(=O)[C@H]1[C@@H]2CNC[C@@H]21)c1n[nH]c2ccccc12 [Example 94]		EC50 [1]: 1.6 nM; half-life at 1 μM [2]: > 2.17 h
CC(C)(NC(=O)[C@H]1[C@@H]2CNC[C@@H]21)c1noc2c(F)cccc12 [Example 101]	>2.17 h	
CC(C)(NC(=O)[C@H]1[C@@H]2CNC[C@@H]21)c1n[nH]c2c(C(F)(F)F)cccc12 [Example 110]		EC50 [1]: 0.7 nM; half-life at 1 μM [2]: > 2.17 h
CC(C)(NC(=O)[C@H]1[C@@H]2CNC[C@@H]21)c1nc(C2CC2)c2ccccn12.Cl [Example 120]	>2.17 h	
Cc1cccn2c(C(C)(C)NC(=O)[C@H]3[C@@H]4CNC[C@@H]43)ncc12.Cl [Example 126]	>2.17 h	
Cc1cccn2c(C(C)(C)NC(=O)[C@H]3[C@@H]4CNC[C@@H]43)nc(C)c12.Cl [Example 130]		EC50 [1]: 0.3 nM; half-life at 1 μM [2]: > 2.17 h
CC(C)(NC(=O)[C@H]1[C@@H]2CNC[C@@H]21)c1ncc2c(F)cccn12.Cl [Example 133]	>2.17 h	
Cc1nc(C(C)(C)NC(=O)[C@H]2[C@@H]3CNC[C@@H]32)c2ccccc2n1 [Example 138]	>2.17 h	
